Active and inactive are the calls of the source. No cut-off for these calls is given here.
Experiments:
Cholinesterase [1] = target: T1, Cholinesterase (Homo sapiens, UniProt P06276)
Description: Inhibition of human plasmatic BChE after 5 mins

Acetylcholinesterase = Acetylcholinesterase (Homo sapiens, UniProt P22303)
Description: Inhibition of human recombinant AChE after 5 mins

Cholinesterase [2] = target: T1, Cholinesterase; test: Inhibition of human plasmatic BChE at 1 mM to 0.1 nM after 5 mins; assay type: cell-free; settings: Plasma

T1 sequence (P06276 whole entry): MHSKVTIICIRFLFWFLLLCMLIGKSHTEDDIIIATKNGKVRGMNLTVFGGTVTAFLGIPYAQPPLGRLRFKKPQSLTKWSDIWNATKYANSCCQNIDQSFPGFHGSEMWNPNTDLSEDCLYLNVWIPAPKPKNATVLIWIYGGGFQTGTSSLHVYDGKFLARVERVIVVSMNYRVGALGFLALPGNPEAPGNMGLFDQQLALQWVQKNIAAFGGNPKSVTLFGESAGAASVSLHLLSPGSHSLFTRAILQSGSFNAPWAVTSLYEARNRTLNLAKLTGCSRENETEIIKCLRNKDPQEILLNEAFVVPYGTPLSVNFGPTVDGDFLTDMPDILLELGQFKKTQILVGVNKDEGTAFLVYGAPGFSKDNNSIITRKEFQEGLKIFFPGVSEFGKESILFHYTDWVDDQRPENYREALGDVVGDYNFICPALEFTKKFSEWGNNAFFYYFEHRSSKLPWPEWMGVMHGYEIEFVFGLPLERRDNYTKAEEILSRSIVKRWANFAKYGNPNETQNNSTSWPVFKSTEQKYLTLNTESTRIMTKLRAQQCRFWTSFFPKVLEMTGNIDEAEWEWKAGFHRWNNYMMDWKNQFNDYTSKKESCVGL
Chain of Acetylcholinesterase (P22303 whole entry): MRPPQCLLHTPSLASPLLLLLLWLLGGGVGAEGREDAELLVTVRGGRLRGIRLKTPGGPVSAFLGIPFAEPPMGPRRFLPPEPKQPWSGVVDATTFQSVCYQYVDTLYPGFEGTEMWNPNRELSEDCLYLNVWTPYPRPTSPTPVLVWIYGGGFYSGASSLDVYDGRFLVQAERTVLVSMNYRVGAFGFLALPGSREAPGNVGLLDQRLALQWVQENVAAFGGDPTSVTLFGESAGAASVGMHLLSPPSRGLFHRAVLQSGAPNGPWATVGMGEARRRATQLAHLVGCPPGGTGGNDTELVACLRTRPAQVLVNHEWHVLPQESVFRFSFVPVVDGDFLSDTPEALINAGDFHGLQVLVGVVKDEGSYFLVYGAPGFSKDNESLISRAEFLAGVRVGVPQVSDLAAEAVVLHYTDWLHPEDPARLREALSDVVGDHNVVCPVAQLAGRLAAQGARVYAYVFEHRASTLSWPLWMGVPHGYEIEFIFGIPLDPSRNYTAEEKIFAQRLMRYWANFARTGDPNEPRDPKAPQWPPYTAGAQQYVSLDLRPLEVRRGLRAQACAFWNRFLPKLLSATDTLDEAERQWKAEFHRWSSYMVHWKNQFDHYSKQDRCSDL

| SMILES | IC50 (Cholinesterase [1]) [µM] | IC50 (Acetylcholinesterase) [µM] | inhibition (Cholinesterase [2]) |
| --- | --- | --- | --- |
| CCCCCNc1c2c(nc3ccc(OC)cc13)CCCC2 | 16 | 6.7 | – |
| CCCCNc1c2c(nc3ccc(OC)cc13)CCCC2 | 64 | 21 | – |
| CCNc1c2c(nc3ccc(OC)cc13)CCCC2 | 97 | 66 | – |
| CCCCCCCCCCCNc1c2c(nc3ccc(OC)cc13)CCCC2 | – | – | inactive |
| CCCCCCCCCCCCNc1c2c(nc3ccc(OC)cc13)CCCC2 | – | 1 | inactive |
| CCCCCCCCCNc1c2c(nc3ccc(OC)cc13)CCCC2 | 0.36 | 1.6 | – |
| CCCCCCCCCCNc1c2c(nc3ccc(OC)cc13)CCCC2 | – | – | inactive |
| CCCCCCCNc1c2c(nc3ccc(OC)cc13)CCCC2 | 0.04 | 0.27 | – |
| CCCCCCNc1c2c(nc3ccc(OC)cc13)CCCC2 | 1 | 0.1 | – |
| CCCNc1c2c(nc3ccc(OC)cc13)CCCC2 | 70 | 9.2 | – |
| CCCCCCCCNc1c2c(nc3ccc(OC)cc13)CCCC2 | 0.12 | 0.36 | – |
| CCCCCCCCCCCCCNc1c2c(nc3ccc(OC)cc13)CCCC2 | – | 100 | inactive |
| CCCCCCCCCCCCCCCNc1c2c(nc3ccc(OC)cc13)CCCC2 | – | – | inactive |
| CCCCCCCCCCCCCCNc1c2c(nc3ccc(OC)cc13)CCCC2 | – | 46 | inactive |

— ChEMBL document CHEMBL1255181, “Synthesis and in vitro evaluation of N-alkyl-7-methoxytacrine hydrochlorides as potential cholinesterase inhibitors in Alzheimer disease” (Bioorg Med Chem Lett, 2010)
